{"source": "patent US10138255B2", "about": "“Piperazine derivatives as HIV protease inhibitors” (Merck Sharp & Dohme Corp., priority 2014, dated 2018)"}
{"system": "HIV-1 (H9IIIB strain)", "test": "Cell-Based HIV Infection Assay Using a Reporter (MT4-GFP cells)", "conditions": "Human immunodeficiency virus 1, inflection point (IP) of viral growth inhibition; MT4-GFP cells infected with HIV-1 H9IIIB; 50% normal human serum; mean of at least two independent experiments; read-out: Cell Based IP (50% NHS)", "in_short": "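Inflection point from a 4-parameter curve of % viral growth inhibition, normalised to DMSO and triple-drug controls, using the 48 h/24 h ratio of GFP-positive cells (R0). MT4-GFP cells pre-infected 24 h with HIV-1 H9IIIB at low MOI; compounds tested in 50% normal human serum, 0.4% DMSO; mean of ≥2 experiments.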", "units": {"EC50": "nM"}}
{"compound": "COC(=O)N[C@H](C(=O)Nc1cccc(F)c1CC[C@H]1CN[C@@H]2CCCS(=O)(=O)N1C2)[C@@H](c1ccc(Cl)cc1)[C@H]1CC[C@H](OC)CC1", "note": "[Example 187, methyl {(1S,2R)-2-(4-chlorophenyl)-1-[(2-{2-[(6R,9S)-2,2-dioxido-2-thia-1,7-diazabicyclo[4.3.1]dec-9-yl]ethyl}-3-fluorophenyl)carbamoyl]-2-[(1r,4R)-4-methoxycyclohexyl]ethyl}carbamate]", "EC50": 3.2}
{"compound": "C[C@@H]1CC([C@H](c2ccc(F)cc2)[C@H](N)C(=O)Nc2cc(F)ccc2CC[C@H]2CN[C@@H]3CCCS(=O)(=O)N2C3)C[C@H](C)O1", "note": "(stereo partly drawn) [Example 188, (βR)-β-[(2S,2R)-2,6-dimethyltetrahydro-2H-pyran-4-yl]-N-(2-{2-[(6R,9S)-2,2-dioxido-2-thia-1,7-diazabicyclo[4.3.1]dec-9-yl]ethyl}-5-fluorophenyl)-4-fluoro-L-phenylalaninamide]", "EC50": 25}
{"compound": "CO[C@H]1CC[C@H]([C@H](c2ccc(F)cc2)[C@H](N)C(=O)N[C@H]2CCCC[C@@H]2CC[C@H]2CN[C@@H]3CCCS(=O)(=O)N2C3)CC1", "note": "[Example 189, (βR)-N-[(1S,2R)-2-{2-[(6R,9S)-2,2-dioxido-2-thia-1,7-diazabicyclo[4.3.1]dec-9-yl]ethyl}cyclohexyl]-4-fluoro-β-[(1r,4R)-4-methoxycyclohexyl]-L-phenylalaninamide]", "EC50": 45}
{"compound": "CC1(C)C[C@@H]([C@H](c2ccc(Cl)cc2)[C@H](N)C(=O)Nc2c(F)ccc(F)c2CC[C@H]2CN[C@@H]3CCCS(=O)(=O)N2C3)CCO1", "note": "[Example 194, (βR)-4-chloro-β-[(4S)-2,2-dimethyltetrahydro-2H-pyran-4-yl]-N-(2-{2-[(6R,9S)-2,2-dioxido-2-thia-1,7-diazabicyclo[4.3.1]dec-9-yl]ethyl}-3,6-difluorophenyl)-L-phenylalaninamide]", "EC50": 19}
{"compound": "N[C@H](C(=O)Nc1cncc(F)c1CC[C@H]1CN[C@@H]2CCCS(=O)(=O)N1C2)[C@@H](c1ccc(F)cc1)C1CCOCC1", "note": "[Example 195, (βR)-N-(4-{2-[(6R,9S)-2,2-dioxido-2-thia-1,7-diazabicyclo[4.3.1]dec-9-yl]ethyl}-5-fluoropyridin-3-yl)-4-fluoro-β-(tetrahydro-2H-pyran-4-yl)-L-phenylalaninamide]", "EC50": 67}
{"compound": "C[C@@H]1CC([C@H](c2ccc(Cl)cc2)[C@H](N)C(=O)N[C@H]2CCC[C@@H]2CC[C@H]2CN[C@@H]3CCCS(=O)(=O)N2C3)C[C@H](C)O1", "note": "(stereo partly drawn) [Example 196, (βR)-4-chloro-β-[(2R,4s,6S)-2,6-dimethyltetrahydro-2H-pyran-4-yl]-N-[(1S,2R)-2-{2-[(6R,9S)-2,2-dioxido-2-thia-1,7-diazabicyclo[4.3.1]dec-9-yl]ethyl}cyclopentyl]-L-phenylalaninamide]", "EC50": 120}
{"compound": "COC(=O)N[C@H](C(=O)Nc1c(F)ccc(F)c1CC[C@H]1CN[C@@H]2CCCS(=O)(=O)N1C2)[C@@H](c1ccc(Cl)cc1)[C@H]1CCOC(C)(C)C1", "note": "[Example 200, methyl {(1S,2R)-2-(4-chlorophenyl)-2-[(4S)-2,2-dimethyltetrahydro-2H-pyran-4-yl]-1-[(2-{2-[(6R,9S)-2,2-dioxido-2-thia-1,7-diazabicyclo[4.3.1]dec-9-yl]ethyl}-3,6-difluorophenyl)carbamoyl]ethyl}carbamate]", "EC50": 35}
{"compound": "COC(=O)N[C@H](C(=O)Nc1cccc(F)c1CC[C@H]1CN[C@@H]2CCCS(=O)(=O)N1C2)[C@@H](c1ccc(F)cc1)[C@H]1CC[C@H](O)CC1", "note": "[Example 201, methyl [(1S)-2-[(2-{2-[(6R,9S)-2,2-dioxido-2-thia-1,7-diazabicyclo[4.3.1]dec-9-yl]ethyl}-3-fluorophenyl)amino]-1-{(R)-(4-fluorophenyl)[(1r,4R)-4-hydroxycyclohexyl]methyl}-2-oxoethyl]carbamate]", "EC50": 220}
{"compound": "N[C@H](C(=O)Nc1cccc(F)c1CC[C@H]1CN[C@@H]2CCCS(=O)(=O)N1C2)[C@@H](c1ccc(F)cc1)[C@H]1CC[C@H](O)CC1", "note": "[Example 202, (βR)-N-(2-{2-[(6R,9S)-2,2-dioxido-2-thia-1,7-diazabicyclo[4.3.1]dec-9-yl]ethyl}-3-fluorophenyl)-4-fluoro-β-[(1r,4R)-4-hydroxycyclohexyl]-L-phenylalaninamide]", "EC50": 89}
{"compound": "COC(=O)N[C@H](C(=O)Nc1cccc(C(F)(F)F)c1CC[C@H]1CN[C@@H]2CCCS(=O)(=O)N1C2)[C@@H](c1ccc(F)cc1)C1C[C@@H](C)O[C@@H](C)C1", "note": "(stereo partly drawn) [Example 203, methyl [(1S,2R)-2-[(2R,6S)-2,6-dimethyltetrahydro-2H-pyran-4-yl]-1-{[2-{2-[(6R,9S)-2,2-dioxido-2-thia-1,7-diazabicyclo[4.3.1]dec-9-yl]ethyl}-3-(trifluoromethyl)phenyl]carbamoyl}-2-(4-fluorophenyl)ethyl]carbamate]", "EC50": 150}
{"compound": "C[C@@H]1CC([C@H](c2ccc(F)cc2)[C@H](N)C(=O)Nc2cccc(C(F)(F)F)c2CC[C@H]2CN[C@@H]3CCCS(=O)(=O)N2C3)C[C@H](C)O1", "note": "(stereo partly drawn) [Example 204, (βR)-β-[(2R,6S)-2,6-dimethyltetrahydro-2H-pyran-4-yl]-N-[2-{2-[(6R,9S)-2,2-dioxido-2-thia-1,7-diazabicyclo[4.3.1]dec-9-yl]ethyl}-3-(trifluoromethyl)phenyl]-4-fluoro-L-phenylalaninamide]", "EC50": 230}
{"compound": "CO[C@H]1CC[C@](c2ccc(F)cc2)([C@H](N)C(=O)Nc2cccc(F)c2CC[C@H]2CN[C@@H]3CCCS(=O)(=O)N2C3)CC1", "note": "[Example 205, (2S)-2-amino-N-(2-{2-[(6R,9S)-2,2-dioxido-2-thia-1,7-diazabicyclo[4.3.1]dec-9-yl]ethyl}-3-fluorophenyl)-2-[trans-1-(4-fluorophenyl)-4-methoxycyclohexyl]ethanamide]", "EC50": 130}
{"compound": "COC(=O)N[C@H](C(=O)Nc1cccc(F)c1CC[C@H]1CN[C@@H]2CCCS(=O)(=O)N1C2)[C@@H](c1ccc(F)cc1)c1cnc(OC(C)C)nc1", "note": "[Example 206, methyl [(1S)-2-[(2-{2-[(6R,9S)-2,2-dioxido-2-thia-1,7-diazabicyclo[4.3.1]dec-9-yl]ethyl}-3-fluorophenyl)amino]-1-{(S)-(4-fluorophenyl)[2-(1-methylethoxy)pyrimidin-5-yl]methyl}-2-oxoethyl]carbamate]", "EC50": 16}
{"compound": "CO[C@H]1CC[C@H]([C@H](c2ccc(Cl)cc2)[C@H](N)C(=O)N[C@H]2CCCC[C@@H]2CC[C@H]2CN[C@@H]3CCCS(=O)(=O)N2C3)CC1", "note": "[Example 207, (βR)-4-chloro-N-[(1S,2R)-2-{2-[(6R,9S)-2,2-dioxido-2-thia-1,7-diazabicyclo[4.3.1]dec-9-yl]ethyl}cyclohexyl]-β-[(1r,4R)-4-methoxycyclohexyl]-L-phenylalaninamide]", "EC50": 40}
{"compound": "CC1(OC(=O)N2CCC([C@H](c3ccc(Cl)cc3)[C@H](N)C(=O)N[C@H]3CCC[C@@H]3CC[C@H]3CN[C@@H]4CCCS(=O)(=O)N3C4)CC2)CC1", "note": "[Example 208, 1-methylcyclopropyl 4-[(1R,2S)-2-amino-1-(4-chlorophenyl)-3-{[(1S,2R)-2-{2-[(6R,9S)-2,2-dioxido-2-thia-1,7-diazabicyclo[4.3.1]dec-9-yl]ethyl}cyclopentyl]amino}-3-oxopropyl]piperidine-1-carboxylate]", "EC50": 100}
{"compound": "COC(=O)N[C@H](C(=O)Nc1cccc(F)c1CC[C@H]1CN[C@@H]2CCCS(=O)(=O)N1C2)[C@]1(c2ccc(F)cc2)CC[C@@H](OC)CC1", "note": "[Example 210, methyl {(1S)-2-[(2-{2-[(6R,9S)-2,2-dioxido-2-thia-1,7-diazabicyclo[4.3.1]dec-9-yl]ethyl}-3-fluorophenyl)amino]-1-[trans-1-(4-fluorophenyl)-4-methoxycyclohexyl]-2-oxoethyl}carbamate]", "EC50": 16}
{"compound": "CCO[C@H]1CC[C@H]([C@H](c2ccc(F)cc2)[C@H](NC(=O)OC)C(=O)Nc2cccc(F)c2CC[C@H]2CN[C@@H]3CCCS(=O)(=O)N2C3)CC1", "note": "[Example 211, methyl {(1S)-2-[(2-{2-[(6R,9S)-2,2-dioxido-2-thia-1,7-diazabicyclo[4.3.1]dec-9-yl]ethyl}-3-fluorophenyl)amino]-1-[(R)-[(1r,4R)-4-ethoxycyclohexyl](4-fluorophenyl)methyl]-2-oxoethyl}carbamate]", "EC50": 6.4}
{"compound": "CCO[C@H]1CC[C@H]([C@H](c2ccc(F)cc2)[C@H](N)C(=O)Nc2cccc(F)c2CC[C@H]2CN[C@@H]3CCCS(=O)(=O)N2C3)CC1", "note": "[Example 212, (βR)-N-(2-{2-[(6R,9S)-2,2-dioxido-2-thia-1,7-diazabicyclo[4.3.1]dec-9-yl]ethyl}-3-fluorophenyl)-β-[(1r,4R)-4-ethoxycyclohexyl]-4-fluoro-L-phenylalaninamide]", "EC50": 7}
{"compound": "N[C@H](C(=O)Nc1cccc(F)c1CC[C@H]1CN[C@@H]2CCCS(=O)(=O)N1C2)[C@@H](c1ccc(F)cc1)C1CCCOC1", "note": "(stereo partly drawn) [Example 214, (βR)-N-(2-{2-[(6R,9S)-2,2-dioxido-2-thia-1,7-diazabicyclo[4.3.1]dec-9-yl]ethyl}-3-fluorophenyl)-4-fluoro-β-(tetrahydro-2H-pyran-3-yl)-L-phenylalaninamide]", "EC50": 18}
{"compound": "CC1(C)C[C@@H]([C@H](c2ccc(Cl)cc2)[C@H](N)C(=O)Nc2cncc(F)c2CC[C@H]2CN[C@@H]3CCCS(=O)(=O)N2C3)CCO1", "note": "[Example 215, (βR)-4-chloro-β-[(4S)-2,2-dimethyltetrahydro-2H-pyran-4-yl]-N-(4-{2-[(6R,9S)-2,2-dioxido-2-thia-1,7-diazabicyclo[4.3.1]dec-9-yl]ethyl}-5-fluoropyridin-3-yl)-L-phenylalaninamide]", "EC50": 8}
{"compound": "NC(C(=O)Nc1cccc(F)c1CC[C@H]1CN[C@@H]2CCCS(=O)(=O)N1C2)[C@@H](c1ccc(Cl)cc1)[C@H]1CC[C@H](O)CC1", "note": "(stereo partly drawn) [Example 217, (βR)-4-chloro-N-(2-{2-[(6R,9S)-2,2-dioxido-2-thia-1,7-diazabicyclo[4.3.1]dec-9-yl]ethyl}-3-fluorophenyl)-β-[(1r,4R)-4-hydroxycyclohexyl]-L-phenylalaninamide]", "EC50": 13}
